# Data taken from ChEMBL document CHEMBL1130494, “Design and synthesis of a targeted set of aromatic amino acid derivatives for identification of new lead compounds” (Bioorg Med Chem Lett, 1997).
# Key:
# [1] = molecular target: Neuromedin-B receptor (Homo sapiens, UniProt P28336); assay: Binding affinity for human neuromedin B(hNMB) receptor expressed in CHO cells; format: cell-based
# [2] = molecular target: T1, Substance-K receptor (Mesocricetus auratus, UniProt P51144); assay: Concentration required for binding affinity to neurokinin (NK2) receptor in hamster urinary bladder
# T1 sequence (P51144 whole entry): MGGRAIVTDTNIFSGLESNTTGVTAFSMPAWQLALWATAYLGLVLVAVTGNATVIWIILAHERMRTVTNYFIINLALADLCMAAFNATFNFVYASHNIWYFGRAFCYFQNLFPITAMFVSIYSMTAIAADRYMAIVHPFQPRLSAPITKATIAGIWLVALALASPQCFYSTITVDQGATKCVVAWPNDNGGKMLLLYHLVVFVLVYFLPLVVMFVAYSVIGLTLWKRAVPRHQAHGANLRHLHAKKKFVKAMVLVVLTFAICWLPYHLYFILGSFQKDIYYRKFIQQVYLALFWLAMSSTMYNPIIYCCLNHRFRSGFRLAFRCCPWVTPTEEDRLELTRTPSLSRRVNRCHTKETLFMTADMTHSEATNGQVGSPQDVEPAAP
# [3] = molecular target: T2, Neuromedin-K receptor (Homo sapiens, UniProt P29371); assay: Concentration required for binding affinity to Tachykinin receptor 3 in chinese hamster ovary cells; format: cell-based, CHO
# T2 sequence (P29371 whole entry): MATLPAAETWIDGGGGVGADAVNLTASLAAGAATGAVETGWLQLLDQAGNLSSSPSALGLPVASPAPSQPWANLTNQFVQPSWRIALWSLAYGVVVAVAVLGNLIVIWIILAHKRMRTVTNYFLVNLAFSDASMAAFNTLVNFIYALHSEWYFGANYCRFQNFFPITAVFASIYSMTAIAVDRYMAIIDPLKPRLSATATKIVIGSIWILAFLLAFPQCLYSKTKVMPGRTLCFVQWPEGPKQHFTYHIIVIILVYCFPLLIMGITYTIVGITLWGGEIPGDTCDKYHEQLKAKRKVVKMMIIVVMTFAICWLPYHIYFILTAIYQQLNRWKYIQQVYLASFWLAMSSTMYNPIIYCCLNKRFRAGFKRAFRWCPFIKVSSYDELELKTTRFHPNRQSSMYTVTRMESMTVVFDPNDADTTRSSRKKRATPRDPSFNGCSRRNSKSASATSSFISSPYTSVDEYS
# [4] = molecular target: T3, Gastrin/cholecystokinin type B receptor (Mus musculus, UniProt P56481); assay: Concentration required for binding affinity to neuropeptide (CCK-B) receptor in mouse cerebral cortex; format: tissue-based
# T3 sequence (P56481 whole entry): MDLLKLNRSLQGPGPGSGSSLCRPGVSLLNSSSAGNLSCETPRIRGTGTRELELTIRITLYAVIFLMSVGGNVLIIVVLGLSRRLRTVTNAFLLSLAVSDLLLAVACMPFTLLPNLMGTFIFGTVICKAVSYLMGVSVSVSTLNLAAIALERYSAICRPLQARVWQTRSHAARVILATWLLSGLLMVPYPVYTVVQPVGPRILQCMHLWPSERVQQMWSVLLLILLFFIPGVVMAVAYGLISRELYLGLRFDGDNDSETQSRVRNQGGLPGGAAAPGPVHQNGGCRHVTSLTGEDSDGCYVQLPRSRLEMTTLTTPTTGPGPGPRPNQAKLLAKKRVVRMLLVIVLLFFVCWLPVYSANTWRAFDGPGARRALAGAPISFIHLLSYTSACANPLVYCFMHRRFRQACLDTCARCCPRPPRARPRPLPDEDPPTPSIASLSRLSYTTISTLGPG
# [5] = molecular target: Substance-P receptor (Homo sapiens, UniProt P25103); assay: Concentration required for binding affinity to neurokinin (NK1) receptor in human IM9 cells; format: cell-based, IM-9
# [6] = molecular target: T4, Cholecystokinin receptor type A (Rattus norvegicus, UniProt P30551); assay: Concentration required for binding affinity to neuropeptide (CCK-A) receptor in rat pancrea
# T4 sequence (P30551 whole entry): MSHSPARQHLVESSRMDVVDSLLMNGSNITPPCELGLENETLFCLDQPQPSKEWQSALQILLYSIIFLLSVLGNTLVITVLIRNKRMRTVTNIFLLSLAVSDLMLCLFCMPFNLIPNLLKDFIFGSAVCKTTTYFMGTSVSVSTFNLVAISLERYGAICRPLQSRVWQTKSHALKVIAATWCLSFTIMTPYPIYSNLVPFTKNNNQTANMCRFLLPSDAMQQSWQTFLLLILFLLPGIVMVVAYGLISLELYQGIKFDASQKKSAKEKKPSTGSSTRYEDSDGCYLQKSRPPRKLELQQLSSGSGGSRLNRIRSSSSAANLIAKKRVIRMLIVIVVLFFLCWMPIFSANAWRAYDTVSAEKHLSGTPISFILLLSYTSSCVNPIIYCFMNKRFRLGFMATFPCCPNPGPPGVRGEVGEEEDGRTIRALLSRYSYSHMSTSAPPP
# Sequence of Neuromedin-B receptor (P28336 whole entry): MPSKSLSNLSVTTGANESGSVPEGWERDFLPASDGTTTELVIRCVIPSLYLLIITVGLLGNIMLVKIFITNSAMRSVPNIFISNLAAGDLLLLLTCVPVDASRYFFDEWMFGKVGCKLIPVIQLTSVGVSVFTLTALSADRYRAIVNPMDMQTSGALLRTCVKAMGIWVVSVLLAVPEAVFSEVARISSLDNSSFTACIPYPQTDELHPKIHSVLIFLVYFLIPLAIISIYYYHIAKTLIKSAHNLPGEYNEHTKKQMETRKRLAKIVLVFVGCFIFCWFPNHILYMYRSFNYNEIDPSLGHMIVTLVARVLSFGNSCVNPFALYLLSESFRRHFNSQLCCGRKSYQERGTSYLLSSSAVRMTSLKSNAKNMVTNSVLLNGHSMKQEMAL
# Sequence of Substance-P receptor (P25103 whole entry): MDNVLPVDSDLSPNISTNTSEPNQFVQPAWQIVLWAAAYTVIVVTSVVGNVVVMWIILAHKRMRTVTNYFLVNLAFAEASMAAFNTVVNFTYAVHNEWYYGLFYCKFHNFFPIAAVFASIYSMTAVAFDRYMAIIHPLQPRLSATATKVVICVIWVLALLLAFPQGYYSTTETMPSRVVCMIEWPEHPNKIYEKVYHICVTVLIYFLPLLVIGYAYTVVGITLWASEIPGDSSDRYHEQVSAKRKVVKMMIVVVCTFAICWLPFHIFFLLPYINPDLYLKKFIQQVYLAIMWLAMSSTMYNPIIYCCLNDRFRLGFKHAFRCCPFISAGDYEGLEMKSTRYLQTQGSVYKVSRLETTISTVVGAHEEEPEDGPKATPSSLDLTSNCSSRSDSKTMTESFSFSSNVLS
Compound,Ki [1],other results
CC(C)CNC(=O)C(Cc1c[nH]c2ccccc12)NC(=O)OCc1cn(C(c2ccccc2)(c2ccccc2)c2ccccc2)cn1 (stereo unspecified),0.037 µM,
O=C(N[C@@H](Cc1c[nH]c2ccccc12)C(=O)NCCc1ccccc1)OCc1ccccc1,2.6 µM,IC50 [2]: 3.27 µM
O=C(O)CCNC(=O)[C@H](Cc1c[nH]c2ccccc12)NC(=O)OCCc1c[nH]c2ccccc12,> 10 µM,
O=C(N[C@@H](Cc1c[nH]c2ccccc12)C(=O)NCCc1c[nH]c2ccccc12)OCc1c[nH]cn1,3.7 µM,
NCCCCCNC(=O)[C@H](Cc1c[nH]c2ccccc12)NC(=O)OCc1ccccc1,> 10 µM,
NCCCCOC(=O)N[C@@H](Cc1c[nH]c2ccccc12)C(=O)NCCO,> 10 µM,
NCCCCOC(=O)N[C@@H](Cc1c[nH]c2ccccc12)C(=O)NCCc1c[nH]c2ccccc12,8.9 µM,
O=C(N[C@@H](Cc1c[nH]c2ccccc12)C(=O)NCCc1c[nH]c2ccccc12)OCCc1c[nH]c2ccccc12,0.98 µM,
NCCCCCNC(=O)[C@H](Cc1c[nH]c2ccccc12)NC(=O)OCC(=O)O,> 10 µM,
CC(C)CNC(=O)[C@H](Cc1c[nH]c2ccccc12)NC(=O)OCCCCN,> 10 µM,
NCCCCOC(=O)N[C@@H](Cc1c[nH]c2ccccc12)C(=O)NCCc1ccccc1,> 10 µM,
NCCCCCNC(=O)[C@H](Cc1c[nH]c2ccccc12)NC(=O)OCCCCN,> 10 µM,
CC(C)OC(=O)N[C@@H](Cc1c[nH]c2ccccc12)C(=O)NCCCCCN,> 10 µM,
CC(C)CCNC(=O)[C@H](Cc1c[nH]c2ccccc12)NC(=O)OCc1ccccc1,6.1 µM,IC50 [4]: 2120 nM
CC(C)CCNC(=O)[C@H](Cc1c[nH]c2ccccc12)NC(=O)OCCCCN,> 10 µM,
O=C(N[C@@H](Cc1c[nH]c2ccccc12)C(=O)NCCO)OCCc1c[nH]c2ccccc12,> 10 µM,
CC(C)CNC(=O)[C@H](Cc1c[nH]c2ccccc12)NC(=O)OCCc1c[nH]c2ccccc12,3.5 µM,
CC(C)COC(=O)N[C@@H](Cc1c[nH]c2ccccc12)C(=O)NCCCCCN,> 10 µM,
O=C(N[C@@H](Cc1c[nH]c2ccccc12)C(=O)NCCc1ccccc1)OCCc1c[nH]c2ccccc12,1.1 µM,
CC(C)CNC(=O)[C@H](Cc1c[nH]c2ccccc12)NC(=O)OCc1ccccc1,> 10 µM,
O=C(N[C@@H](Cc1c[nH]c2ccccc12)C(=O)NCCc1c[nH]c2ccccc12)OCc1ccccc1,2.8 µM,IC50 [6]: 450 nM
O=C(O)CCNC(=O)[C@H](Cc1c[nH]c2ccccc12)NC(=O)OCc1ccccc1,> 10 µM,
CC(C)CCNC(=O)[C@H](Cc1c[nH]c2ccccc12)NC(=O)OCCc1c[nH]c2ccccc12,2.7 µM,
NCCCCCNC(=O)[C@H](Cc1c[nH]c2ccccc12)NC(=O)OCCc1c[nH]c2ccccc12,7.8 µM,
O=C(N[C@@H](Cc1c[nH]c2ccccc12)C(=O)NCCc1c[nH]cn1)OCCc1c[nH]c2ccccc12,5 µM,
NCCCCOC(=O)N[C@@H](Cc1c[nH]c2ccccc12)C(=O)NCCC(=O)O,> 10 µM,

# The next lines start with results.
Ki [1],Compound,other results
2.6 µM,O=C(NC(Cc1c[nH]c2ccccc12)C(=O)NCCc1ccccc1)OCc1cnc[nH]1 (stereo unspecified),
2.7 µM,O=C(N[C@@H](Cc1c[nH]c2ccccc12)C(=O)NCCc1ccccc1)OCc1c[nH]cn1,
3.9 µM,CC(C)CCNC(=O)[C@H](Cc1c[nH]c2ccccc12)NC(=O)OCc1cnc[nH]1,
> 10 µM,CC(C)CNC(=O)[C@H](Cc1c[nH]c2ccccc12)NC(=O)OCC(C)C,
> 10 µM,COC(=O)N[C@@H](Cc1c[nH]c2ccccc12)C(=O)NCCO,
> 10 µM,CC(C)COC(=O)N[C@@H](Cc1c[nH]c2ccccc12)C(=O)NCCO,
> 10 µM,CC(C)CCNC(=O)[C@H](Cc1c[nH]c2ccccc12)NC(=O)OCC(C)C,
3.9 µM,CC(C)CCNC(=O)C(Cc1c[nH]c2ccccc12)NC(=O)OCc1c[nH]cn1 (stereo unspecified),
> 10 µM,COC(=O)N[C@@H](Cc1c[nH]c2ccccc12)C(=O)NCCc1c[nH]c2ccccc12,
> 10 µM,COC(=O)N[C@@H](Cc1c[nH]c2ccccc12)C(=O)NCCc1ccccc1,
> 10 µM,CC(C)COC(=O)N[C@@H](Cc1c[nH]c2ccccc12)C(=O)NCCc1cnc[nH]1,
> 10 µM,CC(C)OC(=O)N[C@@H](Cc1c[nH]c2ccccc12)C(=O)NCCO,
> 10 µM,O=C(O)COC(=O)N[C@@H](Cc1c[nH]c2ccccc12)C(=O)NCCc1c[nH]c2ccccc12,
> 10 µM,CC(C)OC(=O)N[C@@H](Cc1c[nH]c2ccccc12)C(=O)NCCc1c[nH]c2ccccc12,IC50 [3]: 9.42 µM
> 10 µM,O=C(O)COC(=O)N[C@@H](Cc1c[nH]c2ccccc12)C(=O)NCCO,
> 10 µM,COC(=O)N[C@@H](Cc1c[nH]c2ccccc12)C(=O)NCCC(=O)O,
> 10 µM,CC(C)CCNC(=O)[C@H](Cc1c[nH]c2ccccc12)NC(=O)OC(C)C,
> 10 µM,O=C(N[C@@H](Cc1c[nH]c2ccccc12)C(=O)NCCc1c[nH]cn1)OCc1ccccc1,

Ki [1],Compound,other results
> 10 µM,CC(C)CCNC(=O)[C@H](Cc1c[nH]c2ccccc12)NC(=O)OCC(=O)O,
> 10 µM,CC(C)CNC(=O)[C@H](Cc1c[nH]c2ccccc12)NC(=O)OC(C)C,
4.7 µM,CC(C)COC(=O)N[C@@H](Cc1c[nH]c2ccccc12)C(=O)NCCc1c[nH]c2ccccc12,IC50 [5]: 430 nM
> 10 µM,COC(=O)N[C@@H](Cc1c[nH]c2ccccc12)C(=O)NCCC(C)C,
> 10 µM,NCCCCOC(=O)N[C@@H](Cc1c[nH]c2ccccc12)C(=O)NCCc1cnc[nH]1,
> 10 µM,CC(C)OC(=O)N[C@@H](Cc1c[nH]c2ccccc12)C(=O)NCCc1c[nH]cn1,
> 10 µM,COC(=O)N[C@@H](Cc1c[nH]c2ccccc12)C(=O)NCC(C)C,
> 10 µM,COC(=O)N[C@@H](Cc1c[nH]c2ccccc12)C(=O)NCCCCCN,
> 10 µM,O=C(O)COC(=O)N[C@@H](Cc1c[nH]c2ccccc12)C(=O)NCCc1ccccc1,
> 10 µM,O=C(N[C@@H](Cc1c[nH]c2ccccc12)C(=O)NCCO)OCc1ccccc1,
> 10 µM,CC(C)OC(=O)N[C@@H](Cc1c[nH]c2ccccc12)C(=O)NCCc1ccccc1,
> 10 µM,CC(C)CNC(=O)[C@H](Cc1c[nH]c2ccccc12)NC(=O)OCC(=O)O,
> 10 µM,CC(C)CNC(=O)[C@H](Cc1c[nH]c2ccccc12)NC(=O)OCc1c[nH]cn1,
> 10 µM,COC(=O)N[C@@H](Cc1c[nH]c2ccccc12)C(=O)NCCc1cnc[nH]1,
> 10 µM,CC(C)OC(=O)N[C@@H](Cc1c[nH]c2ccccc12)C(=O)NCCC(=O)O,
4.3 µM,CC(C)COC(=O)N[C@@H](Cc1c[nH]c2ccccc12)C(=O)NCCc1ccccc1,
> 10 µM,CC(C)COC(=O)N[C@@H](Cc1c[nH]c2ccccc12)C(=O)NCCC(=O)O,
